Patent US5837817A, “Tumor necrosis factor receptor-II-associated protein kinase and methods for its use” (Research Development Foundation, priority 1996, dated 1998)

How the values were obtained:
[1] = system: p80 receptor phosphorylation, SW480T cells; conditions: pretreatment of SW480T cells; cited from earlier work
purified casein kinase 1 = target: T1, purified casein kinase 1 (Rattus norvegicus, UniProt Q06486); assay: In vitro kinase assay with purified casein kinase 1, p80Δ5 as substrate; assay type: biochemical; conditions: 100 μM inhibitor; 10 units purified casein kinase 1; read-out: inhibition of purified casein kinase 1, measured by phosphorylation of p80Δ5
T1 construct: purchased New England Biolabs, Beverly, Mass
T1 sequence (Q06486 1-317 limits assumed): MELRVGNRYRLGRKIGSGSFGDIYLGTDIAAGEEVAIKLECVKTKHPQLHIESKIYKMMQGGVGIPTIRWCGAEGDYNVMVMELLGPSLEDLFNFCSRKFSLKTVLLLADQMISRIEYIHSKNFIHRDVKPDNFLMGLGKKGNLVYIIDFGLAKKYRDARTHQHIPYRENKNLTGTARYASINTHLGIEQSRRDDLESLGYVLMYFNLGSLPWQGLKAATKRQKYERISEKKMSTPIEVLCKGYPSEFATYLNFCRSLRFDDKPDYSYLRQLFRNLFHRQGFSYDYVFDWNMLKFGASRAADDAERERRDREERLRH
Protocol: (§1) An in vitro kinase assay with 10 units of purified casein kinase 1 (FIG. 11A) or p80TRAK precipitated from U937 cells with p80Δ5 (FIG. 8B) with p80Δ5 as a substrate was performed in the presence of the indicated concentration of casein kinase 1-7 dissolved in DMSO. The asterisk represents a control in which DMSO was added to a final concentration of 1.6%. Reaction mixtures were analyzed by 9% sodium dodecyl sulfate-polyacrylamide gel electrophoresis, and the dried gel was exposed to a PhosphorImager screen. The phosphorylation of p80Δ5 was quantitated by ImageQuant Software (Molecular Dynamics, Sunnyvale, Calif.) .
(§2) Standard kinase assays were carried out for 10 minutes at 37° C. in 50 μl containing 20 mM HEPES, pH 7.4, 10 mM MgCl2, 0.2 mM ATP, 0.2 mM NaF, 0.1 mM sodium orthovanadate, and 10 μCi [γ-^32 P]ATP or as described. Reactions were stopped with 15 μl SDS-sample buffer, boiled for 5 minutes and then subjected to SDS-PAGE. Protein bands were visualized by staining with Coomassie Blue and the dried gels were analyzed by a Phosphorimager (Molecular Dynamics, Sunnyvale, Calif.). Labeled protein bands were quantitated by using ImageQuant Software (Molecular Dynamics, Sunnyvale, Calif.). […]

p80TRAK = assay: In vitro kinase assay with p80TRAK precipitated from U937 cells with p80Δ5, p80Δ5 as substrate; assay type: biochemical
Protocol: as §1, §2

SMILES	extent of phosphorylation of the p80 receptor [1]	inhibition at 100 µM (purified casein kinase 1)	effect on p80TRAK activity as measured by phosphorylation of p80Δ5 (in words) (p80TRAK)	inhibition of p80TRAK, measured by phosphorylation of p80Δ5 (p80TRAK; 100 μM inhibitor, p80TRAK precipitated from U937 cells)
CN[C@@H]1C[C@H]2O[C@@](C)([C@@H]1OC)n1c3ccccc3c3c4c(c5c6ccccc6n2c5c31)C(=O)NC4 [staurosporine]	reduced			
NCCNS(=O)(=O)c1ccc(Cl)c2ccncc12 [casein kinase 1-7]		80%	inhibited	50%
